Reference: patent publication US20070049538A1, “METHODS FOR USING CUCURBITACIN COMPOUNDS” (SOUTH DAKOTA STATE UNIVERSITY, priority 2005, published 2007)

Tests used:
[1] = Chromatographic hydrophobicity index (CHI) by RP-HPLC in buffered methanol; type: physicochemical; settings: buffered methanol pH 7.0, Econosil C18 150 mm, Eq. (4)
HepG2 cells = test: cells; settings: for EC50: read-out: EC50 cytoprotection, Table 7, HepG2 against CCl4 toxicity, estimated
Source text: Experimental conditions were standardized on silybin. […]
The ratio of IC50-to-EC50 (hereafter T/A) is also indicated in this table, which gives the margin between toxic and cytoprotective concentrations.

HSC-T6 cells [2] = test: Serum-driven HSC-T6 proliferation, experiment 1 (4 h challenge, two days drug-free growth); type: cell-based, rat; settings: for EC50: HSC-T6, 4 h challenge, then two days drug-free media
HSC-T6 cells [3] = test: Serum-driven HSC-T6 proliferation, experiment 3 (24 h, proliferating cells); type: cell-based, rat; settings: HSC-T6, 24 h, proliferating cells; read-out: Experiment 3 EC50 (A)
HSC-T6 cells [4] = test: Cytotoxicity on HSC-T6 cells (experiment 3); type: cell-based, rat; settings: read-out: Experiment 3 IC50 (T)
Source text: Cytotoxicity of all cucurbitacin analogs was additionally measured in experiment 3 (Table 8).

[5] = tested on: lipid peroxidation of microsomal suspension; test: Microsomal Lipid Peroxidation Assay; type: biochemical; settings: at 0.1 mM, both chemical and enzymatic assays
Method: Cucurbitacin anti-lipid peroxidation was studied by the Microsomal Lipid Peroxidation Assay (Engineer et al., Biochemical Pharmacology 38(8): 1279-1285, 1989). Lipid peroxidation of microsomal suspension was induced both enzymatically and chemically and validated on the standard compound quercetin. […] Activity of 3 cucurbitacin analogs, B, E, and E-Me-ether was monitored at 0.1 mM indicating no inhibition in either the chemical or enzymatic assay.

Compound | CHIMeOH [1] | cytoprotection on HepG2 cells (HepG2 cells; at 6.25% of IC50, against CCl4) | cytoprotection on HepG2 cells (HepG2 cells; at 12.5% of IC50, against CCl4) | cytoprotection on HepG2 cells (HepG2 cells; at 20% of IC50, against CCl4) | cytoprotection on HepG2 cells (HepG2 cells; at 50% of IC50, against CCl4) | EC50 (HepG2 cells) [nM] | EC50 (HSC-T6 cells [2]) [nM] | EC50 (HSC-T6 cells [3]) [nM] | IC50 (HSC-T6 cells [4]) [nM] | inhibition of lipid peroxidation [5] | anti-proliferation activity (HSC-T6 cells [2]; Experiment 1, FIG. 7, 150 μM) | Experiment 1 anti-proliferation activity (HSC-T6 cells [2]; measured at 100 μM)
CC(=O)OC(C)(C)/C=C/C(=O)[C@](C)(O)[C@H]1[C@H](O)C[C@@]2(C)[C@@H]3CC=C4[C@H](C[C@H](O)C(=O)C4(C)C)[C@]3(C)C(=O)C[C@]12C [B, cucurbitacin B] | 67.33 | 12.45 ± 1.11 | 25.25 ± 1.36 | 34.92 ± 2.76 | 60.01 ± 0.80 | 10500 | 1180 | 20 | 4400 | no inhibition |  | 
CC(=O)OC(C)(C)/C=C/C(=O)[C@](C)(O)[C@H]1[C@H](O)C[C@@]2(C)[C@@H]3CC=C4[C@@H](C=C(O[C@@H]5O[C@H](CO)[C@@H](O)[C@H](O)[C@H]5O)C(=O)C4(C)C)[C@]3(C)C(=O)C[C@]12C [E-Gluc, cucurbitacin E glucoside] | 62.27 | −2.36 ± 1.08 | 17.96 ± 1.14 | 49.44 ± 0.29 | 33.92 ± 2.92 | 45300 |  | 3280 | 102000 |  | about 38% | ˜46%^a^
Cucurbitacin E-Me ether | 71.55 |  |  |  |  | 2400 | 3050 | 80 | 2800 | no inhibition |  | 
cucurbitacin E | 69.6!^ | 12.41 ± 0.78 | 21.72 ± 0.75 | 49.21 ± 1.73 | 80.55 ± 6.80 | 3200 | 860 | 40 |  | no inhibition |  | 
